Measurements: the NIST ThermoML archive (doi:10.1007/s10765-010-0874-x)
± gives the expanded uncertainty stated by the source.

Legend:
[1] = 101 kPa, Liquid; for speed of sound: Sing-around technique in a fixed-path interferometer
[2] = xn = mol fraction of the nth substance listed; settings: 101 kPa, Liquid; for speed of sound: Sing-around technique in a fixed-path interferometer

ClCCCl [1,2-dichloroethane]
[1]
Settings | mass density [kg/m3] | speed of sound [m/s]
293.15 K | 1252.77 ± 0.6 | 1212.9 ± 0.8
298.15 K | 1245.56 ± 0.58 | 1193.6 ± 0.79

BrCCBr [1,2-dibromoethane]
[1]
Settings | mass density [kg/m3] | speed of sound [m/s]
293.15 K | 2179.59 ± 2.2 | 1007 ± 0.74
298.15 K | 2169.14 ± 2.2 | 994.27 ± 0.74

CCCCCCO [hexan-1-ol]
[1]
Settings | mass density [kg/m3] | speed of sound [m/s]
293.15 K | 818.856 ± 0.44 | 1320.1 ± 0.83
298.15 K | 815.281 ± 0.45 | 1303.2 ± 0.83

ClC(Cl)=C(Cl)Cl [tetrachloroethene]
[1]
Settings | mass density [kg/m3] | speed of sound [m/s]
293.15 K | 1622.74 ± 1.2 | 1054 ± 0.75
298.15 K | 1614.43 ± 1.2 | 1039 ± 0.75

CCCCCCO [hexan-1-ol] + ClC(Cl)=C(Cl)Cl
[2], x2 = 0
Settings | mass density [kg/m3] | speed of sound [m/s]
293.15 K | 818.856 ± 0.44 | 1320.1 ± 0.83
298.15 K | 815.281 ± 0.45 | 1303.2 ± 0.83

ClC(Cl)=C(Cl)Cl [tetrachloroethene] + CCCCCCO
[2]
Settings | mass density, 293.15 K [kg/m3] | mass density, 298.15 K [kg/m3] | speed of sound, 293.15 K [m/s] | speed of sound, 298.15 K [m/s]
x1 = 0.0688 | 864.637 ± 0.4 | 860.792 ± 0.4 | 1292 ± 0.83 | 1274.5 ± 0.82
x1 = 0.123 | 901.521 ± 0.35 | 897.46 ± 0.35 | 1270.8 ± 0.82 | 1253.7 ± 0.82
x1 = 0.2457 | 987.759 ± 0.24 | 983.18 ± 0.24 | 1226.3 ± 0.81 | 1209.5 ± 0.8
x1 = 0.3618 | 1072.99 ± 0.33 | 1067.89 ± 0.32 | 1188.2 ± 0.8 | 1171.6 ± 0.79
x1 = 0.4502 | 1140.46 ± 0.44 | 1134.94 ± 0.43 | 1161.5 ± 0.79 | 1144.9 ± 0.78
x1 = 0.5583 | 1226.3 ± 0.57 | 1220.26 ± 0.56 | 1131.5 ± 0.78 | 1115.1 ± 0.77
x1 = 0.6518 | 1303.62 ± 0.7 | 1297.1 ± 0.69 | 1108.3 ± 0.77 | 1092 ± 0.77
x1 = 0.7068 | 1350.53 ± 0.78 | 1343.73 ± 0.77 | 1095.8 ± 0.77 | 1079.5 ± 0.76
x1 = 0.7419 | 1381.18 ± 0.83 | 1374.19 ± 0.82 | 1088.4 ± 0.76 | 1072 ± 0.76
x1 = 0.7797 | 1414.65 ± 0.89 | 1407.46 ± 0.88 | 1080.9 ± 0.76 | 1064.6 ± 0.76
x1 = 0.8315 | 1461.44 ± 0.97 | 1453.97 ± 0.95 | 1071.4 ± 0.76 | 1055.6 ± 0.75
x1 = 0.8718 | 1498.8 ± 1 | 1491.15 ± 1 | 1064.7 ± 0.76 | 1049 ± 0.75
x1 = 0.9179 | 1542.25 ± 1.1 | 1534.33 ± 1.1 | 1058.2 ± 0.75 | 1043.3 ± 0.75
x1 = 0.9504 | 1573.61 ± 1.2 | 1565.56 ± 1.1 | 1055 ± 0.75 | 1041.2 ± 0.75
x1 = 1 | 1622.74 ± 1.2 | 1614.43 ± 1.2 | 1054 ± 0.75 | 1039 ± 0.75

ClCCCl [1,2-dichloroethane] + CCCCCCO
[2]
Settings | mass density, 293.15 K [kg/m3] | mass density, 298.15 K [kg/m3] | speed of sound, 293.15 K [m/s] | speed of sound, 298.15 K [m/s]
x1 = 0.037 | 828.769 ± 0.43 | 825.105 ± 0.43 | 1313.2 ± 0.83 | 1296.2 ± 0.83
x1 = 0.0769 | 839.847 ± 0.41 | 836.074 ± 0.42 | 1305.3 ± 0.83 | 1288.2 ± 0.82
x1 = 0.1499 | 860.583 ± 0.38 | 856.62 ± 0.39 | 1291.7 ± 0.83 | 1274.3 ± 0.82
x1 = 0.2147 | 879.725 ± 0.35 | 875.586 ± 0.36 | 1279.7 ± 0.82 | 1262.2 ± 0.82
x1 = 0.2935 | 904.954 ± 0.32 | 900.591 ± 0.33 | 1265.2 ± 0.82 | 1248 ± 0.81
x1 = 0.3952 | 940.475 ± 0.27 | 935.784 ± 0.28 | 1247.7 ± 0.81 | 1230 ± 0.81
x1 = 0.4532 | 962.107 ± 0.24 | 957.223 ± 0.25 | 1238.5 ± 0.81 | 1220.7 ± 0.8
x1 = 0.5596 | 1005.05 ± 0.2 | 999.79 ± 0.19 | 1222.8 ± 0.8 | 1206 ± 0.8
x1 = 0.6113 | 1027.55 ± 0.24 | 1022.09 ± 0.23 | 1216.7 ± 0.8 | 1199.8 ± 0.8
x1 = 0.6971 | 1067.98 ± 0.3 | 1062.14 ± 0.29 | 1207.9 ± 0.8 | 1189.7 ± 0.79
x1 = 0.7791 | 1111.06 ± 0.37 | 1104.85 ± 0.36 | 1202.3 ± 0.8 | 1184.3 ± 0.79
x1 = 0.8563 | 1155.16 ± 0.45 | 1148.59 ± 0.44 | 1200.7 ± 0.8 | 1182.8 ± 0.79
x1 = 0.9335 | 1205.43 ± 0.53 | 1198.46 ± 0.52 | 1205.4 ± 0.8 | 1184.3 ± 0.79
x1 = 0.979 | 1236.99 ± 0.59 | 1229.8 ± 0.57 | 1211.8 ± 0.8 | 1187.7 ± 0.79
x1 = 1 | 1252.77 ± 0.6 | 1245.56 ± 0.58 | 1212.9 ± 0.8 | 1193.6 ± 0.79

BrCCBr [1,2-dibromoethane] + CCCCCCO
[2]
Settings | mass density, 293.15 K [kg/m3] | mass density, 298.15 K [kg/m3] | speed of sound, 293.15 K [m/s] | speed of sound, 298.15 K [m/s]
x1 = 0.0402 | 856.608 ± 0.43 | 852.83 ± 0.43 | 1296.7 ± 0.83 | 1280 ± 0.83
x1 = 0.0682 | 883.413 ± 0.4 | 879.495 ± 0.4 | 1281 ± 0.83 | 1264.4 ± 0.82
x1 = 0.1276 | 941.916 ± 0.33 | 937.69 ± 0.33 | 1249.4 ± 0.82 | 1233.1 ± 0.81
x1 = 0.2056 | 1022.36 ± 0.3 | 1017.7 ± 0.29 | 1211.2 ± 0.81 | 1195.3 ± 0.8
x1 = 0.2686 | 1090.47 ± 0.4 | 1085.45 ± 0.39 | 1182.9 ± 0.8 | 1167.3 ± 0.79
x1 = 0.3892 | 1228.97 ± 0.6 | 1223.2 ± 0.59 | 1135.2 ± 0.78 | 1120.2 ± 0.78
x1 = 0.4277 | 1276.43 ± 0.69 | 1270.41 ± 0.68 | 1121.2 ± 0.78 | 1106.3 ± 0.77
x1 = 0.5444 | 1427.13 ± 0.93 | 1420.31 ± 0.92 | 1083.6 ± 0.76 | 1069.2 ± 0.76
x1 = 0.6405 | 1562 ± 1.2 | 1554.45 ± 1.1 | 1057.4 ± 0.76 | 1043.6 ± 0.75
x1 = 0.7326 | 1701.64 ± 1.4 | 1693.37 ± 1.4 | 1036.5 ± 0.75 | 1023.1 ± 0.75
x1 = 0.8519 | 1899.69 ± 1.7 | 1890.44 ± 1.7 | 1016.8 ± 0.74 | 1004 ± 0.74
x1 = 0.9273 | 2036.52 ± 2 | 2026.66 ± 2 | 1009.9 ± 0.74 | 997.38 ± 0.74
x1 = 0.9587 | 2096.51 ± 2.1 | 2086.4 ± 2.1 | 1008.3 ± 0.74 | 995.92 ± 0.74
x1 = 0.9782 | 2135.29 ± 2.2 | 2125.02 ± 2.1 | 1007.4 ± 0.74 | 994.76 ± 0.74
x1 = 1 | 2179.59 ± 2.2 | 2169.14 ± 2.2 | 1007 ± 0.74 | 994.27 ± 0.74

CCCCCCO [hexan-1-ol] + BrCCBr
[2], x2 = 0
Settings | mass density [kg/m3] | speed of sound [m/s]
293.15 K | 818.856 ± 0.44 | 1320.1 ± 0.83
298.15 K | 815.281 ± 0.45 | 1303.2 ± 0.83

CCCCCCO [hexan-1-ol] + ClCCCl
[2], x2 = 0
Settings | mass density [kg/m3] | speed of sound [m/s]
293.15 K | 818.856 ± 0.44 | 1320.1 ± 0.83
298.15 K | 815.281 ± 0.45 | 1303.2 ± 0.83
